This is an account of results in patent US9809623B2, “α4β7 peptide monomer and dimer antagonists” (Protagonist Therapeutics, Inc., priority 2014, dated 2017).

Series [1] can be described thus: Simulated Intestinal Fluid (SIF) Stability Assay. The class given is in vitro ADME, porcine. The conditions noted are these: > means experiment was stopped at that time and half life was not reached; for half-life at 22 μM: pig, simulated intestinal fluid (SIF) with 1% porcine pancreatin, pH 6.5, Table 3-B, read-out: Stabilty SIF t1/2. An outline of the steps: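 Peptides (22 μM final) incubated at 37 °C in FASSIF (pH 6.5) with 1% porcine pancreatin; aliquots quenched at various times and analyzed by LC-MS/MS against internal standard. Half-life from first-order exponential decay fit of percent remaining.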

For series [2], the target named is α4β7 (Homo sapiens, UniProt P13612+P26010). Nature of the series: α4β7-MAdCAM Cell Adhesion Assay (RPMI 8866 human cells). The conditions noted are these: Table 3-B, Potency (α4β7); range classes; read-out: α4β7 cell (Hu) IC50. The class given is cell-based. Also noted: host or cells: RPMI 8866 human B lymphoblastoid cells. An outline of the steps: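 Washed RPMI 8866 cells (200,000/well) in DMEM with 0.1% BSA, 10 mM HEPES pH 7, 1 mM MnCl2 adhered to rh MAdCAM-1/Fc-coated wells with serially diluted peptides, 30-45 min at 37 °C. After three washes, bound cells quantified by MTT, A570, cell-free background subtracted for dose response.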

Series [3] deals with T1, rh integrin α4β7 (Homo sapiens, UniProt P13612+P26010).
T1 construct: purchased R&D Systems 5397-A30
Description: α4β7-MAdCAM Competition ELISA. The class given is binding. To be noted: Table 3-B, Potency (α4β7); range classes; read-out: α4β7 ELISA IC50. In outline:
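Recombinant human α4β7 was captured on nickel plates at 800 ng/well. Peptide in 3-fold serial dilution (final top 10 μM) competed with MAdCAM-1 (final 10 nM) for 1 h at room temperature in 50 mM Tris pH 7.6, 150 mM NaCl, 1 mM MnCl2 or MgCl2. Bound MAdCAM-1 was detected with anti-human IgG1-HRP/TMB at A450.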

Series [4] has as its target T2, α4β1 (Homo sapiens, UniProt P05556+P13612, DEL729-798).
T2 construct: purchased R&D Systems 5668-A4
Description: α4β1-VCAM Competition ELISA. The class given is binding. The conditions noted are these: Table 3-B, Selectivity (α4β1); range classes; read-out: α4β1 ELISA IC50. The protocol: A Nunc MaxiSorp plate was coated with rh VCAM-1/CD106 Fc chimera (R&D #862-VC) at 400 ng/well in 50 ul per well in 1×PBS and incubated overnight at 4° C. The solution was removed by shaking and then blocked with 250 ul of 1% BSA in 1×PBS per well. The wells were then incubated at room temperature for 1 hr with shaking. Each well was then washed once with wash buffer (50 mM Tris-HCl pH7.6, 100 mM NaCL, 1 mM MnCl2 or MgCl2, 0.05% Tween-20). 25 ul of serial dilutions of peptides starting at 200 μM in assay buffer (Assay buffer: 50 mM Tris-HCl pH7.6, 100 mM NaCl, 1 mM MnCl2 or MgCl2, 0.05% Tween-20) was added to each well. Additionally, 25 ul of α4β1 (R&D Systems #5668-A4) was added to each well at a fixed concentration of 120 nM. The final peptide and α4β1 concentrations were 100 μM and 60 nM, respectively. The plates were then incubated at 37° C. for 2 hr. The solution was then removed by shaking, and each well was washed three times with wash buffer. 50 ul of 9F10 antibody at 4 ug/ml (purified mouse anti-human CD49d, BD Bioscience Cat#555502) was then added to each well, and the plate was incubated at room temperature for 1 hr with shaking. The solution was again removed by shaking, and each well was washed three times with wash buffer. 50 ul of peroxidase-conjugated AffiniPure Goat anti-mouse IgG (Jackson immune research cat #115-035-003) diluted in 1:5000 in assay buffer was added to each well. The plate was incubated at room temperature for 30 min with shaking. Each well was then washed 3 times with wash buffer. 100 ul of TMB was then added to each well and closely observe during developing time. The reaction was stepped with 2N H2SO4 and absorbance was read at 450 nm.

Numbered stars: 1 amine (or outer) side, 2 acyl side, 3 side chain; on linkers, the order of the positions; unused ones are H or OH. Bridge positions count the residues as written; N and C are the ends. Square brackets hold non-standard residues; d marks the D form. Peptide text beside a SMILES is read from it. I, II: the chains in the order shown. Phe(3,4-Cl2) = N[C@@H](Cc1ccc(Cl)c(Cl)c1)C(=O)O; Phe(2,4-Cl2) = N[C@@H](Cc1ccc(Cl)cc1Cl)C(=O)O; 1Nal = N[C@@H](Cc1cccc2ccccc12)C(=O)O; 2Nal = N[C@@H](Cc1ccc2ccccc2c1)C(=O)O; Diglycolyl = O=C(COCC(=O)[*:2])[*:1]; NMeR = CN[C@@H](CCCNC(=N)N)C(=O)O; Pen = CC(C)(S)[C@H](N)C(=O)O; dNMeK = CN[C@H](CCCCN)C(=O)O A value given as a limit tells only on which side of the number the result lay.

α4β7, sequence (P13612 34-1032): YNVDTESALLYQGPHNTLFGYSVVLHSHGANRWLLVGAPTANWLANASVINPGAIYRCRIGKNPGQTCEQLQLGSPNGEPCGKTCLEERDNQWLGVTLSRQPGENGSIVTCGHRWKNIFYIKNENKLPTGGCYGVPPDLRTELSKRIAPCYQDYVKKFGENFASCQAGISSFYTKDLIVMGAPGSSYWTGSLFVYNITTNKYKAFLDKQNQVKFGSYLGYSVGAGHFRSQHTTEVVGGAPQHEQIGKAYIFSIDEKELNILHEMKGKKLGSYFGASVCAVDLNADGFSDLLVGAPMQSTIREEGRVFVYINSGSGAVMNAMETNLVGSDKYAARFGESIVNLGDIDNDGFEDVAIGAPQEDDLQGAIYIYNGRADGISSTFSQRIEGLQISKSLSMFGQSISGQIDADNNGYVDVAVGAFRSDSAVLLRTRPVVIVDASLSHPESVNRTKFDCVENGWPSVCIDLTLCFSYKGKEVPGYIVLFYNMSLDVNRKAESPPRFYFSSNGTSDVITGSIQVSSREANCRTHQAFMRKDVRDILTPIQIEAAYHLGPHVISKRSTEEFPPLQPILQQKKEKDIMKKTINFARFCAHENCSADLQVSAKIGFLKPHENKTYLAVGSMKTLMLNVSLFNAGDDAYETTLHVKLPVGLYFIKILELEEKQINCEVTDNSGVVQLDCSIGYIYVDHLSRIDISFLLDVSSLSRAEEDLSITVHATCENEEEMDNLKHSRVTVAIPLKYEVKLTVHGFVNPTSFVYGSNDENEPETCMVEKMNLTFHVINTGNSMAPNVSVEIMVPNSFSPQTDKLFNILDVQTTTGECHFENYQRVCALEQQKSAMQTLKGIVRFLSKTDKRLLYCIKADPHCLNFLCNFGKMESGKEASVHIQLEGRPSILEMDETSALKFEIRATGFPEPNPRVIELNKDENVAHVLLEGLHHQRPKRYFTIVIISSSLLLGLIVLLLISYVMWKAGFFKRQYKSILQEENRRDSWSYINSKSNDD
α4β7, sequence (P26010 20-798): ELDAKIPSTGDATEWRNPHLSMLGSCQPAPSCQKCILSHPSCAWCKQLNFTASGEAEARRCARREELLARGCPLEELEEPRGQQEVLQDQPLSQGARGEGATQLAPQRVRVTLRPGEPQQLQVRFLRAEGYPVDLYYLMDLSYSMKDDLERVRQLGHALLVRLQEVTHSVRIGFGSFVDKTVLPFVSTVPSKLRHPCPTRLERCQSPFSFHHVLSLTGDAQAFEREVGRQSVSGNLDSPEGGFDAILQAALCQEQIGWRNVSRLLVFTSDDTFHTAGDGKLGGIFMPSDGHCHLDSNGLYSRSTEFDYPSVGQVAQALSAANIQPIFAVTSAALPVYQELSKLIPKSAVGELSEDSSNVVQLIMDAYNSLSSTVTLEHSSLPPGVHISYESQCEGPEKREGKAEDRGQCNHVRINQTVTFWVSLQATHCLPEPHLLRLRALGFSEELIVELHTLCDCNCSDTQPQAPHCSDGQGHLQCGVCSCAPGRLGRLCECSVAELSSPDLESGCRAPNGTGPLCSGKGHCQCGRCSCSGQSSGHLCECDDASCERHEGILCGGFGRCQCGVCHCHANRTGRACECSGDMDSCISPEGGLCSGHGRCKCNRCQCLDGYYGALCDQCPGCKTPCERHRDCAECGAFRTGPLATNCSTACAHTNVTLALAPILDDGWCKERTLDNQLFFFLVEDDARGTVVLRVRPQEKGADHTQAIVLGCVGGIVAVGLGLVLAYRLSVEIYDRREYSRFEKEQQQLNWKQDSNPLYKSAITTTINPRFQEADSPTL
T2 sequence (P13612 34-977 limits assumed, stated change not applied): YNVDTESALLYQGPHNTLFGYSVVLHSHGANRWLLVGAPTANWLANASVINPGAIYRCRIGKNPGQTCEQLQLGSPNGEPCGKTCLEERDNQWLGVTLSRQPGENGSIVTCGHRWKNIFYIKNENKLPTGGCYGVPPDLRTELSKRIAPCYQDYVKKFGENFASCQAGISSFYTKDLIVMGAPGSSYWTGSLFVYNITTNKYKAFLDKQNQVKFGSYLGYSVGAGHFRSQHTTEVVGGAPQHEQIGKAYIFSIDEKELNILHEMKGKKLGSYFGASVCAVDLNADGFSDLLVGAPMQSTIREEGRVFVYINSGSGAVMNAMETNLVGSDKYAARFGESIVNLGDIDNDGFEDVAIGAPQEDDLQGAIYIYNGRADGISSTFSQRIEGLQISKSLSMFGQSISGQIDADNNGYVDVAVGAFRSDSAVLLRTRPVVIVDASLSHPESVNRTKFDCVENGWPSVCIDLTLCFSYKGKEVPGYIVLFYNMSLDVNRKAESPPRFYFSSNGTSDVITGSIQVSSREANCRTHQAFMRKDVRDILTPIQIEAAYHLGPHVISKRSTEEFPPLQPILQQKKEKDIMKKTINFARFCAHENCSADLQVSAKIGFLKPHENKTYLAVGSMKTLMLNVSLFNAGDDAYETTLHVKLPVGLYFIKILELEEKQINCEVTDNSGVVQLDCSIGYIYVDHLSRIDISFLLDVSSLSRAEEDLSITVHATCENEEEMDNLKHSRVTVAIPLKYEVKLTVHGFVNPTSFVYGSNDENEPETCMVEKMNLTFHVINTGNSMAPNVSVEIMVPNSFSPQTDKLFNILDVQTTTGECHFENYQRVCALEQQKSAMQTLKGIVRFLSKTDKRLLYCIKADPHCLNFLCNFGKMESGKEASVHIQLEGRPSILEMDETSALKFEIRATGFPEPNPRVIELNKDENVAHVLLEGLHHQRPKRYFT
T2 sequence (P05556 21-728 limits assumed, stated change not applied): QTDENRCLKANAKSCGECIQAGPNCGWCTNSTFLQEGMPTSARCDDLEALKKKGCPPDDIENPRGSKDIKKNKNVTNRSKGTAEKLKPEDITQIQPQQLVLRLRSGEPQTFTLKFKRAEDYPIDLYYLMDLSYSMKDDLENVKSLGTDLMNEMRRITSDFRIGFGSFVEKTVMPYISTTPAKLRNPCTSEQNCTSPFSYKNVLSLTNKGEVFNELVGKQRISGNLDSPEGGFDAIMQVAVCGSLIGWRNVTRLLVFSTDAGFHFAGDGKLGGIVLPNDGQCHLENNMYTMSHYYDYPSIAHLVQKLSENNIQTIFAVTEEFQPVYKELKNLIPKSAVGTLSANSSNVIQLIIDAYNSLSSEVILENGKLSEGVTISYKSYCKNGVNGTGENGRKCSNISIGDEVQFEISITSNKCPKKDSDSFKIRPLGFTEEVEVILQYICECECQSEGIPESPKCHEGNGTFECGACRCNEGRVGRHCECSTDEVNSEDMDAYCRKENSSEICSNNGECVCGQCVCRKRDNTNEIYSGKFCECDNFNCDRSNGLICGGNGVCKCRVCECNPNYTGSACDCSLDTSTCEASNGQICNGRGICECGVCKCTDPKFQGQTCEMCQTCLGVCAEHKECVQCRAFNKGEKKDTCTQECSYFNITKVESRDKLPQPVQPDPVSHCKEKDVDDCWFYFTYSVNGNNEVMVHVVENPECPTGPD
T1 sequence (P13612 34-977 limits assumed): as the sequence (P13612 34-977 limits assumed, stated change not applied) above
T1 sequence (P26010 20-723 limits assumed): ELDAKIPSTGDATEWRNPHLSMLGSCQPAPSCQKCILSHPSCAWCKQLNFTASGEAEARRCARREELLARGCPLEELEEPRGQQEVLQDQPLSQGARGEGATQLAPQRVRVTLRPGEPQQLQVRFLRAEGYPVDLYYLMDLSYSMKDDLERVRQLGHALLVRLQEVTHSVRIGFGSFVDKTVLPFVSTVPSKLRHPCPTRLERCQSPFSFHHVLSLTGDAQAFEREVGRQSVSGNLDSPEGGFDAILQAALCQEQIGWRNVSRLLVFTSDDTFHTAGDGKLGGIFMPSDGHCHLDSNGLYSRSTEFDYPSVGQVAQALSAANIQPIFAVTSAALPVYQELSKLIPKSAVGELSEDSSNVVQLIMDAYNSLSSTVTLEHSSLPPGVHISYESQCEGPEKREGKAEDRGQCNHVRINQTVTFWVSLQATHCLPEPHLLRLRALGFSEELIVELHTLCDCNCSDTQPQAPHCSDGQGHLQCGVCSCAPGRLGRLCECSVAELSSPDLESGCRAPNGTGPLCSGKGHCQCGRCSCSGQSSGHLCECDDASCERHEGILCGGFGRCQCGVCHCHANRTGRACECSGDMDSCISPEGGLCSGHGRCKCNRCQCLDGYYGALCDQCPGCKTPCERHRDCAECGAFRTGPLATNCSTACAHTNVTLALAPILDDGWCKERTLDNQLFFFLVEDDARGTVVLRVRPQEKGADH

By IC50 is commonly meant the midpoint of a concentration-inhibition curve. In the case of `CC(=O)N[C@@H]1C(=O)N(C)[C@@H](CCCNC(=N)N)C(=O)N[C@@H](CO)C(=O)N[C@@H](CC(=O)O)C(=O)N[C@@H]([C@@H](C)O)C(=O)N[C@@H](CC(C)C)C(=O)N[C@H](C(=O)N[C@@H](Cc2cccc3ccccc23)C(=O)N[C@@H](CCC(=O)O)C(=O)N[C@H](CCCCNC(=O)COCC(=O)NCCCC[C@@H](NC(=O)[C@H](CCC(=O)O)NC(=O)[C@H](Cc2cccc3ccccc23)NC(=O)[C@H]2NC(=O)[C@H](CC(C)C)NC(=O)[C@H]([C@@H](C)O)NC(=O)[C@H](CC(=O)O)NC(=O)[C@H](CO)NC(=O)[C@H](CCCNC(=N)N)N(C)C(=O)[C@@H](NC(C)=O)C(C)(C)SSC2(C)C)C(N)=O)C(N)=O)C(C)(C)SSC1(C)C` [compound 24] (I: Ac-[Pen][NMeR]SDTL[Pen][1Nal]E[dK]-NH2 / II: Ac-[Pen][NMeR]SDTL[Pen][1Nal]E[dK]-NH2; disulfide I:1-I:7, II:1-II:7; linker I:10-II:10 via Diglycolyl), the half-life at 22 μM in series [1] is 56 min. For the same molecule, the half-inhibitory concentration (IC50) in series [2] is below 0.01 µM; in series [3], below 0.01 µM; in series [4], 0.1 to 0.5 µM.
Regarding `CC(=O)N[C@@H]1C(=O)N(C)[C@@H](CCCNC(=N)N)C(=O)N[C@@H](CO)C(=O)N[C@@H](CC(=O)O)C(=O)N[C@@H]([C@@H](C)O)C(=O)N[C@@H](CC(C)C)C(=O)N[C@H](C(=O)N[C@@H](Cc2cccc3ccccc23)C(=O)N[C@H](CCC(=O)O)C(=O)N[C@H](CCCCNC(=O)COCC(=O)NCCCC[C@@H](NC(=O)[C@@H](CCC(=O)O)NC(=O)[C@H](Cc2cccc3ccccc23)NC(=O)[C@H]2NC(=O)[C@H](CC(C)C)NC(=O)[C@H]([C@@H](C)O)NC(=O)[C@H](CC(=O)O)NC(=O)[C@H](CO)NC(=O)[C@H](CCCNC(=N)N)N(C)C(=O)[C@@H](NC(C)=O)C(C)(C)SSC2(C)C)C(N)=O)C(N)=O)C(C)(C)SSC1(C)C` [compound 32] (I: Ac-[Pen][NMeR]SDTL[Pen][1Nal][dE][dK]-NH2 / II: Ac-[Pen][NMeR]SDTL[Pen][1Nal][dE][dK]-NH2; disulfide I:1-I:7, II:1-II:7; linker I:10-II:10 via Diglycolyl), in series [1], the half-life at 22 μM is above 180 min. Further, the IC50 is 0.01 to 0.025 µM in series [2], below 0.01 µM in series [3] and 0.1 to 0.5 µM in series [4].
Turning to `CC(=O)N[C@@H]1C(=O)N(C)[C@@H](CCCNC(=N)N)C(=O)N[C@@H](CO)C(=O)N[C@@H](CC(=O)O)C(=O)N[C@@H]([C@@H](C)O)C(=O)N[C@@H](CC(C)C)C(=O)N[C@H](C(=O)N[C@@H](Cc2cccc3ccccc23)C(=O)N[C@H](CCC(=O)O)C(=O)N(C)[C@H](CCCCNC(=O)COCC(=O)NCCCC[C@H](C(N)=O)N(C)C(=O)[C@@H](CCC(=O)O)NC(=O)[C@H](Cc2cccc3ccccc23)NC(=O)[C@H]2NC(=O)[C@H](CC(C)C)NC(=O)[C@H]([C@@H](C)O)NC(=O)[C@H](CC(=O)O)NC(=O)[C@H](CO)NC(=O)[C@H](CCCNC(=N)N)N(C)C(=O)[C@@H](NC(C)=O)C(C)(C)SSC2(C)C)C(N)=O)C(C)(C)SSC1(C)C` [compound 38] (I: Ac-[Pen][NMeR]SDTL[Pen][1Nal][dE][dNMeK]-NH2 / II: Ac-[Pen][NMeR]SDTL[Pen][1Nal][dE][dNMeK]-NH2; disulfide I:1-I:7, II:1-II:7; linker I:10-II:10 via Diglycolyl), the half-life at 22 μM in series [1] was above 180 min. Besides, the IC50 in series [2] is below 0.01 µM; in series [3], below 0.01 µM; in series [4], 0.1 to 0.5 µM.
Consider `CC(=O)N[C@@H]1C(=O)N(C)[C@@H](CCCNC(=N)N)C(=O)N[C@@H](CO)C(=O)N[C@@H](CC(=O)O)C(=O)N[C@@H]([C@@H](C)O)C(=O)N[C@@H](CC(C)C)C(=O)N[C@H](C(=O)N[C@@H](Cc2ccc3ccccc3c2)C(=O)N[C@@H](CCC(=O)O)C(=O)N(C)[C@H](CCCCNC(=O)COCC(=O)NCCCC[C@H](C(N)=O)N(C)C(=O)[C@H](CCC(=O)O)NC(=O)[C@H](Cc2ccc3ccccc3c2)NC(=O)[C@H]2NC(=O)[C@H](CC(C)C)NC(=O)[C@H]([C@@H](C)O)NC(=O)[C@H](CC(=O)O)NC(=O)[C@H](CO)NC(=O)[C@H](CCCNC(=N)N)N(C)C(=O)[C@@H](NC(C)=O)C(C)(C)SSC2(C)C)C(N)=O)C(C)(C)SSC1(C)C` [compound 41] (I: Ac-[Pen][NMeR]SDTL[Pen][2Nal]E[dNMeK]-NH2 / II: Ac-[Pen][NMeR]SDTL[Pen][2Nal]E[dNMeK]-NH2; disulfide I:1-I:7, II:1-II:7; linker I:10-II:10 via Diglycolyl), for which the half-life at 22 μM in series [1] was above 180 min. Moreover, the IC50 was below 0.01 µM in series [2], below 0.01 µM in series [3] and 0.1 to 0.5 µM in series [4].
Turning to `CC(=O)N[C@@H]1C(=O)N(C)[C@@H](CCCNC(=N)N)C(=O)N[C@@H](CO)C(=O)N[C@@H](CC(=O)O)C(=O)N[C@@H]([C@@H](C)O)C(=O)N[C@@H](CC(C)C)C(=O)N[C@H](C(=O)N[C@@H](Cc2ccc(Cl)cc2Cl)C(=O)N[C@@H](CCC(=O)O)C(=O)N[C@H](CCCCNC(=O)COCC(=O)NCCCC[C@@H](NC(=O)[C@H](CCC(=O)O)NC(=O)[C@H](Cc2ccc(Cl)cc2Cl)NC(=O)[C@H]2NC(=O)[C@H](CC(C)C)NC(=O)[C@H]([C@@H](C)O)NC(=O)[C@H](CC(=O)O)NC(=O)[C@H](CO)NC(=O)[C@H](CCCNC(=N)N)N(C)C(=O)[C@@H](NC(C)=O)C(C)(C)SSC2(C)C)C(N)=O)C(N)=O)C(C)(C)SSC1(C)C` [compound 42] (I: Ac-[Pen][NMeR]SDTL[Pen][Phe(2,4-Cl2)]E[dK]-NH2 / II: Ac-[Pen][NMeR]SDTL[Pen][Phe(2,4-Cl2)]E[dK]-NH2; disulfide I:1-I:7, II:1-II:7; linker I:10-II:10 via Diglycolyl), the “Stabilty SIF t1/2” value in series [1] (Table 3-B) is listed as 49 min. Also, the half-life at 22 μM in series [1] is 51 min. The results for the IC50 in series [2], in series [3] and in series [4] were below 0.01 µM, below 0.01 µM and 0.1 to 0.5 µM, respectively.
With `CC(=O)N[C@@H]1C(=O)N(C)[C@@H](CCCNC(=N)N)C(=O)N[C@@H](CO)C(=O)N[C@@H](CC(=O)O)C(=O)N[C@@H]([C@@H](C)O)C(=O)N[C@@H](CC(C)C)C(=O)N[C@H](C(=O)N[C@@H](Cc2ccc(Cl)c(Cl)c2)C(=O)N[C@@H](CCC(=O)O)C(=O)N[C@H](CCCCNC(=O)COCC(=O)NCCCC[C@@H](NC(=O)[C@H](CCC(=O)O)NC(=O)[C@H](Cc2ccc(Cl)c(Cl)c2)NC(=O)[C@H]2NC(=O)[C@H](CC(C)C)NC(=O)[C@H]([C@@H](C)O)NC(=O)[C@H](CC(=O)O)NC(=O)[C@H](CO)NC(=O)[C@H](CCCNC(=N)N)N(C)C(=O)[C@@H](NC(C)=O)C(C)(C)SSC2(C)C)C(N)=O)C(N)=O)C(C)(C)SSC1(C)C` [compound 43] (I: Ac-[Pen][NMeR]SDTL[Pen][Phe(3,4-Cl2)]E[dK]-NH2 / II: Ac-[Pen][NMeR]SDTL[Pen][Phe(3,4-Cl2)]E[dK]-NH2; disulfide I:1-I:7, II:1-II:7; linker I:10-II:10 via Diglycolyl), in series [1], the half-life at 22 μM is 21 min. In addition, the results for the IC50 in series [2], in series [3] and in series [4] were 0.01 to 0.025 µM, below 0.01 µM and 0.1 to 0.5 µM, respectively.
